Reference: ChEMBL document CHEMBL1201862, “PubChem BioAssay data set” (2004)
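Each compound was tested at five concentrations against cells in 96-well plates for 48 hours. Abbreviation: GI50, concentration required for 50% inhibition of growth.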 The source made the active and inactive calls. Rule as the data show it: active = GI50 up to about 1.1 µM and inactive = higher.

What was measured:
Test in all cases: NCI tumour cell line growth inhibition, 48 h
[1] = system: HCT-116
[2] = system: MOLT-4
[3] = system: EKVX
[4] = system: OVCAR-8
[5] = system: UACC-257
[6] = system: K562
[7] = system: HCC 2998
[8] = system: NCI-H226
[9] = system: RPMI-8226
[10] = system: TK-10
[11] = system: 786-0
[12] = system: OVCAR-5
[13] = system: SNB-75
[14] = system: NCI-H522
[15] = system: OVCAR-4
[16] = system: IGROV-1
[17] = system: RXF 393
[18] = system: SK-OV-3

Compound	GI50 [1]	GI50 [2]	GI50 [3]	GI50 [4]	GI50 [5]	GI50 [6]	GI50 [7]	GI50 [8]	GI50 [9]	GI50 [10]	GI50 [11]	GI50 [12]	GI50 [13]	GI50 [14]	GI50 [15]	GI50 [16]	GI50 [17]	GI50 [18]
CC(=O)Nc1ccc(C(=O)N2N=C(C)/C(=C\c3c(O)ccc4ccccc34)C2=O)cc1	93.5 µM (inactive)	31.7 µM (inactive)	> 100 µM (inactive)	88.1 µM (inactive)	> 100 µM (inactive)	74.8 µM (inactive)	> 100 µM (inactive)	39.5 µM (inactive)	56.8 µM (inactive)	0.1 µM (active)	> 100 µM (inactive)	> 100 µM (inactive)	> 100 µM (inactive)	67 µM (inactive)	> 100 µM (inactive)			
O=S(=O)(N/N=C/c1ccc(/C=N/NS(=O)(=O)c2ccccc2)cc1)c1ccccc1	57.3 µM (inactive)	21.5 µM (inactive)	72.9 µM (inactive)	42 µM (inactive)	53.2 µM (inactive)	29.4 µM (inactive)	> 100 µM (inactive)	> 100 µM (inactive)	45 µM (inactive)	60.7 µM (inactive)	50.6 µM (inactive)	4.36 µM (inactive)	70.3 µM (inactive)		63.7 µM (inactive)	37.9 µM (inactive)	27.7 µM (inactive)	> 100 µM (inactive)
CC1=NN(C(=O)Cc2ccccc2)C(=O)/C1=C\c1ccccc1O	> 100 µM (inactive)	> 100 µM (inactive)	> 100 µM (inactive)	> 100 µM (inactive)	> 100 µM (inactive)	> 100 µM (inactive)	> 100 µM (inactive)	> 100 µM (inactive)	> 100 µM (inactive)	> 100 µM (inactive)	> 100 µM (inactive)	> 100 µM (inactive)		> 100 µM (inactive)	> 100 µM (inactive)	> 100 µM (inactive)	> 100 µM (inactive)	> 100 µM (inactive)
CN1CCCc2nc3ccccc3n2C1	> 100 µM (inactive)	> 100 µM (inactive)	> 100 µM (inactive)	> 100 µM (inactive)	> 100 µM (inactive)	> 100 µM (inactive)		> 100 µM (inactive)	23.7 µM (inactive)	> 100 µM (inactive)	> 100 µM (inactive)	> 100 µM (inactive)	> 100 µM (inactive)	97.7 µM (inactive)	> 100 µM (inactive)	> 100 µM (inactive)	> 100 µM (inactive)	> 100 µM (inactive)
Cc1cccc(C)c1NC(=O)C(=O)C(C#N)c1ccccc1 (stereo unspecified)	> 100 µM (inactive)	> 100 µM (inactive)	> 100 µM (inactive)	> 100 µM (inactive)	> 100 µM (inactive)	> 100 µM (inactive)	> 100 µM (inactive)	> 100 µM (inactive)		> 100 µM (inactive)	> 100 µM (inactive)	> 100 µM (inactive)	> 100 µM (inactive)	> 100 µM (inactive)	> 100 µM (inactive)	> 100 µM (inactive)	> 100 µM (inactive)	> 100 µM (inactive)
Cn1cc(NC(=O)c2cc(NC(=O)CCCCCCCCCCC(=O)Nc3cc(C(=O)Nc4cc(C(=O)NCCC(=N)N)n(C)c4)n(C)c3)cn2C)cc1C(=O)NCCC(=N)N	27 µM (inactive)	45.9 µM (inactive)	31 µM (inactive)	20.3 µM (inactive)	7.8 µM (inactive)	74 µM (inactive)	19 µM (inactive)	> 100 µM (inactive)		29.4 µM (inactive)	23.6 µM (inactive)	67.3 µM (inactive)	> 100 µM (inactive)	12.1 µM (inactive)	41.4 µM (inactive)	24.5 µM (inactive)	17.8 µM (inactive)	> 100 µM (inactive)
N#C/C(=C\c1ccccc1Br)C(=O)c1ccccc1	2.81 µM (inactive)	12.2 µM (inactive)	> 100 µM (inactive)	11.1 µM (inactive)	> 60 µM (inactive)	0.55 µM (active)	> 95.7 µM (inactive)	> 54.8 µM (inactive)	9.86 µM (inactive)	> 63.4 µM (inactive)	15.8 µM (inactive)	> 61.7 µM (inactive)		58.2 µM (inactive)	7.14 µM (inactive)	> 10 µM (inactive)	32.9 µM (inactive)	> 100 µM (inactive)
CC1=CC(N2C(=O)C(C)=CC2O)NC1=O (stereo unspecified)	> 100 µM (inactive)		> 100 µM (inactive)	> 100 µM (inactive)	> 100 µM (inactive)		> 100 µM (inactive)	> 100 µM (inactive)		> 100 µM (inactive)	> 100 µM (inactive)	> 100 µM (inactive)	> 100 µM (inactive)	> 100 µM (inactive)	> 100 µM (inactive)		> 100 µM (inactive)	
Cc1cc(N(CCC#N)CCC#N)ccc1/C=C1/CN(N2C(=O)/C(=C/c3ccc(N(CCC#N)CCC#N)cc3C)N=C2c2ccccc2)C(c2ccccc2)=N1	> 100 µM (inactive)	> 100 µM (inactive)	> 100 µM (inactive)	> 100 µM (inactive)	> 100 µM (inactive)	> 100 µM (inactive)	> 100 µM (inactive)	> 100 µM (inactive)		26.5 µM (inactive)	54.3 µM (inactive)	> 100 µM (inactive)	16.9 µM (inactive)	> 100 µM (inactive)	> 100 µM (inactive)	> 100 µM (inactive)	28.4 µM (inactive)	
